Earlier results, collected in patent publication US20190167601A1, “APPARATUS AND METHOD FOR ZERO ORDER DRUG DELIVERY FROM MULTILAYER AMPHIPHILIC CO-NETWORKS” (The University of Akron, priority 2016, published 2019).
Counter-ions that a name gives are not always drawn.

maximum drug solubility in water [mg/mL]	SMILES
0.168	COc1c(N2C[C@@H]3CCCN[C@@H]3C2)c(F)cc2c(=O)c(C(=O)O)cn(C3CC3)c12 [Moxifloxacin Hydrochloride]
8	CC(C)OC(=O)CCC/C=C\C[C@@H]1[C@@H](CC[C@@H](O)CCc2ccccc2)[C@H](O)C[C@@H]1O [Latanoprost]
